According to patent publication US6331555A, “Treatment of platelet derived growth factor related disorders such as cancers” (priority 1999, dated 2001):
Values joined by “and” are separate entries in the source; they are usually repeats but may differ in a detail not shown here. Identical values can stand only once. Like-named read-outs stand apart in the source and are kept apart here.

Legend:
C6 cells = experiment: C6 SRB growth assay; format: cell-based, rat; conditions: Rattus norvegicus, C6; read-out: C6 SRB IC50
PDGF-R (U1242) = target: T1, PDGF-R (U1242) (Homo sapiens, UniProt P09619); experiment: U1242 kinase (PDGF-R activity); format: cell-based
T1 construct: U1242 (PDGF-β receptor); host or cells: U1242 MG glioma cells
Protocol: (§1) For western blotting, cells were plated in 2 mL growth medium into 6-well dishes (500,000 cells per well) and allowed to attach overnight. […] The plates were then incubated overnight at 37° C., ambient CO2. […] After a 7 min incubation at room temperature with ligand, the plates were put on ice and washed three times with 1 mL ice-cold PBS plus 1 mM orthovanadate. Lysis was achieved by pipetting cells in 0.5 mL of buffer containing 50 mM Tris, pH 7.4, 10% glycerol, 1% NP-40, 2 mM EDTA, 1 mM sodium vanadate (Na3 VO4), 10 mM pyrophosphate, 1 mM PMSF, […]. A 300 μL aliquot of each lysate was immediately added to 100 μL 4×Laemmli sample buffer ([…] Tris pH 6.9, 20% glycerol, 7% SDS, 5 mM EDTA, 5% β-mercaptoethanol) containing phosphatase inhibitors, 2 mM Na3 VO4 and 10 mM pyrophosphate. Samples were boiled for 5 min, frozen in dry ice-ethanol, and stored at -80° C. […] The integrity of the protein-to-membrane transfer was determined by staining with 1% Ponceau S in 5% acetic acid for 5 min. After destaining in several distilled water rinses, the membrane was soaked overnight in blocking buffer containing 5% milk in Tris-buffered saline, 0.05% Tween 20. Phosphotyresine was detected by incubating the membrane (1 hr at room temperature) with an anti-phosphotyosine antiserum diluted in blocking buffer at 1:3000. […] The antibodies were visualized using ECL reagent from Amersham and by exposure to Fuji RX film.
(§2) For ELISA assays, cells were grown to 80-90% confluency in growth medium and seeded in 96-well tissue culture plates in 0.5% serum at 25,000 to 30,000 cells per well. After overnight incubation in 0.5% serum-containingmedium, cells were changed to serum-free medium and treated with test compound for 2 hr in a 5% CO2, 37° C. incubator. […] Lysates were incubated with shaking for 1 hr at room temperature. The plates were washed with TBST four times and then incubated with polyclonol anti-phosphotyrosine antibody at room temperature for 30 min. Excess anti-phosphotyrosine antibody was removed by rinsing the plate with TBST four times. Goat anti-rabbit IgG antibody was added to the ELISA plate for 30 min at room temperature followed by rinsing with TBST four more times.
PDGF-R activity, C6 SRB, and in vivo efficacy were measured using the procedures described in the appendices above.

EGFR = target: T2, EGFR (Homo sapiens, UniProt P00533); experiment: Receptor tyrosine kinase inhibition, EGFR; format: cell-based; conditions: for IC50: read-out: EGFR ID50
T2 construct: expressed in transfected cells; host or cells: NIH3T3 mouse fibroblasts, retroviral vector
Protocol: (§3) For western blotting, cells were plated in 2 mL growth medium into 6-well dishes (500,000 cells per well) and allowed to attach overnight. The medium was replaced with 2 mL MCDB 105 (UCSF Cell Culture Facility) supplemented with 1% FBS. The plates were then incubated overnight at 37° C., ambient CO2. […] After a 7 min incubation at room temperature with ligand, the plates were put on ice and washed three times with 1 mL ice-cold PBS plus 1 mM orthovanadate. Lysis was achieved by pipetting cells in 0.5 mL of buffer containing 50 mM Tris, pH 7.4, 10% glycerol, 1% NP-40, 2 mM EDTA, 1 mM sodium vanadate (Na3 VO4), 10 mM pyrophosphate, 1 mM PMSF, […]. A 300 μL aliquot of each lysate was immediately added to 100 μL 4×Laemmli sample buffer ([…] Tris pH 6.9, 20% glycerol, 7% SDS, 5 mM EDTA, 5% β-mercaptoethanol) containing phosphatase inhibitors, 2 mM Na3 VO4 and 10 mM pyrophosphate. Samples were boiled for 5 min, frozen in dry ice-ethanol, and stored at -80° C. Proteins were resolved by SDS-PAGE (Bio-Rad Miniprotean II) and transferred to nitrocellulose membrane (Schleicher & Schuell) at 120 volts for 1 hr at room temperature in buffer containing 25 mM Tris pH 8.3, 20% methanol, 0.2 M glycine, 0.1% SDS. The integrity of the protein-to-membrane transfer was determined by staining with 1% Ponceau S in 5% acetic acid for 5 min. After destaining in several distilled water rinses, the membrane was soaked overnight in blocking buffer containing 5% milk in Tris-buffered saline, 0.05% Tween 20. Phosphotyresine was detected by incubating the membrane (1 hr at room temperature) with an anti-phosphotyosine antiserum diluted in blocking buffer at 1:3000. For C6 cells, PDGF-β receptor content in the lysates was confirmed in duplicate sample lanes by western blotting using an antibody specific for PDGF-β receptor (UBI). The antibodies were visualized using ECL reagent from Amersham and by exposure to Fuji RX film.
(§4) For ELISA assays, cells were grown to 80-90% confluency in growth medium and seeded in 96-well tissue culture plates in 0.5% serum at 25,000 to 30,000 cells per well. After overnight incubation in 0.5% serum-containingmedium, cells were changed to serum-free medium and treated with test compound for 2 hr in a 5% CO2, 37° C. incubator. Cells were then stimulated with ligand for 5-10 min followed by lysis with HNTG (20 mM Hepes, 150 mM NaCl, 10% glycerol, 5 mM EDTA, 5 mM Na3 VO4 0.2% Triton X-100, and 2 mM NaPyr). Cell lysates (0.5 mg/well in PBS) were transferred to ELISA plates previously coated with receptor-specific antibody and which had been blocked with 5% milk in TBST (50 mM Tris-HCl pH 7.2, 150 mM NaCl and 0.1% Triton X-100) at room temperature for 30 min. Lysates were incubated with shaking for 1 hr at room temperature. The plates were washed with TBST four times and then incubated with polyclonol anti-phosphotyrosine antibody at room temperature for 30 min. Excess anti-phosphotyrosine antibody was removed by rinsing the plate with TBST four times. Goat anti-rabbit IgG antibody was added to the ELISA plate for 30 min at room temperature followed by rinsing with TBST four more times.
(§5) The ability of different compound to inhibit different receptor tyrosine kinases was tested.

HER2 = experiment: Receptor tyrosine kinase inhibition, HER2; format: cell-based; conditions: for IC50: read-out: HER2 IC50
Protocol: as §3, §4, §5

FLK-1 = target: T3, FLK-1 (Mus musculus, UniProt P35918); experiment: Receptor tyrosine kinase inhibition, FLK-1; format: cell-based; conditions: read-out: FLK-1 IC50
T3 construct: expressed in transfected cells; host or cells: NIH3T3 mouse fibroblasts, retroviral vector
Protocol: as §3, §4, §5

PDGFR [1] = target: T4, PDGFR (Homo sapiens, UniProt P09619); experiment: Receptor tyrosine kinase inhibition, PDGFR; format: cell-based; parameters: U1242 (PDGF-β receptor); host or cells: U1242 glioma cells (ELISA); conditions: read-out: PDGFR IC50
Protocol: as §1, §2, §5

PDGFR [2] = experiment: Receptor tyrosine kinase inhibition, PDGFR; format: cell-based
Protocol: as §1, §2, §5

PDGFR [3] = target: T4, PDGFR; experiment: PDGF-stimulated receptor phosphorylation in U1242 cells, ELISA; format: cell-based; parameters: U1242 (PDGF-β receptor); host or cells: U1242 MG glioma cells; conditions: 100 ng/ml PDGF-BB; read-out: ELISA P-TYR U1242 IC50
Protocol: as §4, with “Cell lysates (0.5 mg/well in PBS) were transferred to ELISA plates previously coated with receptor-specific antibody and which had been blocked with 5% milk in TBST (50 mM Tris-HCl pH 7.2, 150 mM NaCl and 0.1% Triton X-100) at room temperature for 30 min.” left out
U1242 MG cells were plated in 96-well plates at a concentration of 5×10^4 cells/well in cultured media containing 0.5% FBS. The cells were incubated for 24 hours. The cells were then treated with a particular compound for 2 hours followed by the addition of 100 ng/ml PDGF-BB and incubation for 10 minutes.
Cells were lysed in 0.2 M Hepes, 0.15 M NaCl, 10% V/V glycerol, 0.04% Triton X-100, 5 mM EDTA, 5 MM Na^+ vanadate and […] Na^+ pyrophosphate. Cell lysates were then added to an ELISA plate coated with an anti-PDGF receptor antibody (Genzyme). ELISA plates were coated at […] of antibody/well in […] of PBS for 18 hours at 4° C. prior to the addition of the lysate.
The lysate was incubated in the coated plates for 1 hour and then washed four times in TBST (35 mM Tris-HCl pH 7.0, 0.15 M NaCl, 0.1% Triton X-100). Anti-phosphotyrosine antibody ([…] in PBS) was added and the mixture was incubated for 30 minutes at room temperature. The wells were then washed four times in TBST, a secondary antibody conjugated to POD (TAGO) was added to each well, and the treated wells were incubated for 30 minutes at room temperature. The wells were then washed four times in TBST, ABTS/H2 O2 solution was added to each well and the wells were incubated for two minutes. Absorbance was then measured at 410 nm.

[4] = W = done in Western assay; read-out: PDGFR IC50 (W)
[5] = W = done in Western assay, read-out: U1242 KINASE IC50 (W)

T2 sequence (P00533 25-1210): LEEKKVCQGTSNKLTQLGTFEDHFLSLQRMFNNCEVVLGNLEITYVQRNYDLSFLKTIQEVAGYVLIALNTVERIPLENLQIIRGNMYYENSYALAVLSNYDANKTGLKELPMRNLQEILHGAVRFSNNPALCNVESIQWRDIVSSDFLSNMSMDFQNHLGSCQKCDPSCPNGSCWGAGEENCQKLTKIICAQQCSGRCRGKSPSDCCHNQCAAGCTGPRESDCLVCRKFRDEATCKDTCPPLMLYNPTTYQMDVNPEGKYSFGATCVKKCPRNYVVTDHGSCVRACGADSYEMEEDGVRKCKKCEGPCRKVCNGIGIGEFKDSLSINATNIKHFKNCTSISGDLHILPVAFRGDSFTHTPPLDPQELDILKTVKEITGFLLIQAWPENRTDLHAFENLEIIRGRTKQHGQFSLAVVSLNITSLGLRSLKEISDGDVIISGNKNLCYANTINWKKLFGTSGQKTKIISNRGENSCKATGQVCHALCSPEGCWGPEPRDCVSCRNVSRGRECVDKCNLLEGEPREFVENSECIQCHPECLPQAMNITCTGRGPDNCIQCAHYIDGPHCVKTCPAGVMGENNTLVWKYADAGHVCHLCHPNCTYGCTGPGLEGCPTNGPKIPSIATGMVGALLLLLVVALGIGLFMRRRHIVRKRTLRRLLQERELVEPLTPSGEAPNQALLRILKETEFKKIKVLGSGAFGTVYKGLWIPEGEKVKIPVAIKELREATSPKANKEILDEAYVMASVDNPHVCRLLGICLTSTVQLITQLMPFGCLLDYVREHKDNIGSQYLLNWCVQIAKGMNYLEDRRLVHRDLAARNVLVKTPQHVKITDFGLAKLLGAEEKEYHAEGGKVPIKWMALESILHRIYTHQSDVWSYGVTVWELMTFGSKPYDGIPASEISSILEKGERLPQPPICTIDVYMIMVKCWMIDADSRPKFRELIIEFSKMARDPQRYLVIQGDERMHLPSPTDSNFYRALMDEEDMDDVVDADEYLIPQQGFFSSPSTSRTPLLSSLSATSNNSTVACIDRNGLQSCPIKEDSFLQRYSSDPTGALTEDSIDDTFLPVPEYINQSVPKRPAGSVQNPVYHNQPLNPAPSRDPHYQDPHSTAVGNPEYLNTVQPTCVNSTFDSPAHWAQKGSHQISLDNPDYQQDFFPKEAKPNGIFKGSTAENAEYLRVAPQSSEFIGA
T3 sequence (P35918 20-1345): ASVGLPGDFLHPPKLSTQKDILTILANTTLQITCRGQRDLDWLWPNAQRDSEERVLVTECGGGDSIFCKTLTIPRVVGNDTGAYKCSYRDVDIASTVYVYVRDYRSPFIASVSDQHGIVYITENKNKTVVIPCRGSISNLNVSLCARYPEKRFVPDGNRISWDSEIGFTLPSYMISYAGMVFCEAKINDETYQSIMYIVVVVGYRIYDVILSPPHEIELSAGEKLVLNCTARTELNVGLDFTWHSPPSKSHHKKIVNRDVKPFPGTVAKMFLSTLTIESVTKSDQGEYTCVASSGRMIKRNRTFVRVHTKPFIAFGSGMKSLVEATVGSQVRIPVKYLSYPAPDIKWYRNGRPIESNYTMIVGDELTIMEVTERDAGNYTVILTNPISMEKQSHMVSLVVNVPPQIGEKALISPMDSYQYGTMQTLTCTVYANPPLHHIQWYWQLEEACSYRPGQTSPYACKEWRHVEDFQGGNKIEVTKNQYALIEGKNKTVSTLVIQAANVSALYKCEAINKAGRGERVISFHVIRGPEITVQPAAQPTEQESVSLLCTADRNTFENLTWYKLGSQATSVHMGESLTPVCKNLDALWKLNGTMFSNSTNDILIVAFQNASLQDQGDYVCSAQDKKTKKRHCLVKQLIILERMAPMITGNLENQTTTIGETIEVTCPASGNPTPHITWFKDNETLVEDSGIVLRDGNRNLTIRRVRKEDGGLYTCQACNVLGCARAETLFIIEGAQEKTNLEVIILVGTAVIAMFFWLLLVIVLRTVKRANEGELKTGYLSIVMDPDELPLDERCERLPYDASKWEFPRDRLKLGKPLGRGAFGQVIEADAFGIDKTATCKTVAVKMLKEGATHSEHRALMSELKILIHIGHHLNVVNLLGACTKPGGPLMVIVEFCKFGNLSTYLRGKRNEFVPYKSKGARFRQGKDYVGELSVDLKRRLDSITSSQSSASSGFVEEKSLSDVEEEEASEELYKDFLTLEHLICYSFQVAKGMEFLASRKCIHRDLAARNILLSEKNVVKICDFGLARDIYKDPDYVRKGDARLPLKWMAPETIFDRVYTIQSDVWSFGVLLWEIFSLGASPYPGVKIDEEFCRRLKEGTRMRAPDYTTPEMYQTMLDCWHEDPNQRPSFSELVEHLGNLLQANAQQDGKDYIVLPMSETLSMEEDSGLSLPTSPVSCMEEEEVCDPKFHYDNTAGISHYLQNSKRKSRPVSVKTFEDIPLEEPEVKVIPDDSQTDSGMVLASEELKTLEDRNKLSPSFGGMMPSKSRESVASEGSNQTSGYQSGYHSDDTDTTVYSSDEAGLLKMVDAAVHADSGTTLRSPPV
T4 sequence (P09619 33-1106): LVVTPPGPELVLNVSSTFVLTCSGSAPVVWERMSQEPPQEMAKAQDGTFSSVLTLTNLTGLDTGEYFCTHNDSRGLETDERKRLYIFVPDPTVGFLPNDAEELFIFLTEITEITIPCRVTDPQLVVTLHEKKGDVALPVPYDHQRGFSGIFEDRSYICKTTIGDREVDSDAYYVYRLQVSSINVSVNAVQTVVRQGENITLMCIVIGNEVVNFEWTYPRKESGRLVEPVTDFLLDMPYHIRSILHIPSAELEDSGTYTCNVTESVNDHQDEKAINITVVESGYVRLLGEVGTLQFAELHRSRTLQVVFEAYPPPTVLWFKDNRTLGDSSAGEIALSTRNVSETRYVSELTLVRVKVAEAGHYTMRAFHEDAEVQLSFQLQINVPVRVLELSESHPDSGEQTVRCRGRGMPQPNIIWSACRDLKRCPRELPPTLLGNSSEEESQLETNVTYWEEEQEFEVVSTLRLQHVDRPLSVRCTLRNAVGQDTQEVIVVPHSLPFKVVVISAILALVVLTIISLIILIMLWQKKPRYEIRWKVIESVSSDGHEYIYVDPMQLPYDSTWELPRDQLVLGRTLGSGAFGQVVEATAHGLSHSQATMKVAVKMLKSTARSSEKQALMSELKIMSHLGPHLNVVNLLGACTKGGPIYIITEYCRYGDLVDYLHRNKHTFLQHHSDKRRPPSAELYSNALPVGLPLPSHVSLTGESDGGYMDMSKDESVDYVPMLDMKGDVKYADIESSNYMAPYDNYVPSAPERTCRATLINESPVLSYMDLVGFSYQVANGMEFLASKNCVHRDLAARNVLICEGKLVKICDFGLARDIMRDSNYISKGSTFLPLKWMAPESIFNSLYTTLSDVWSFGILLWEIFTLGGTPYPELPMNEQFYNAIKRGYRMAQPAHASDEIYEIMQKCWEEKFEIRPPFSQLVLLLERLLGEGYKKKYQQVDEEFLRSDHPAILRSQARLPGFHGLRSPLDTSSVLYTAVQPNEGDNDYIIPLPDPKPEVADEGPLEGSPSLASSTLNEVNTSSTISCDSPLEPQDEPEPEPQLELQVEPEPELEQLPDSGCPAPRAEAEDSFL
T1 sequence (P09619 33-1106): as above

Compound | IC50 (EGFR) [µM] | IC50 (HER2) [µM] | IC50 (FLK-1) [µM] | IC50 (PDGFR [2]; [4]) [µM] | IC50 (PDGFR [3]) [µM] | further results
COc1cccc(NC(=S)C(C#N)C(=O)N2CCCC2)c1 (stereo not drawn) [Compound P21, N-3-methoxyphenyl (2-cyano-2-N-pyrrolidinycarbonyl) thioacetamide] |  |  |  |  |  | IC50 (C6 cells): > 25 µM; IC50 (PDGF-R (U1242); read-out: U1242 KINASE IC50): 93 µM
N#CC(=Cc1c[nH]c2ccccc12)c1c(C#N)c(N)nn1-c1ccccc1 [Compound D20] | > 50 | > 50 | > 50 |  |  | IC50 (PDGFR [1]): 14 µM
CCOc1ccccc1NC(=O)C(=O)NN=Cc1ccc(O)c(O)c1 [Compound E14] |  |  | > 50 | 10 | 100 | 
O=[N+]([O-])c1ccc2ncc(-c3ccccc3)nc2c1 [Compound G23] | > 100 | > 100 | 325 |  |  | IC50 (PDGFR [2]; read-out: PDGFR IC50 (W); W = done in Western assay): 25 µM
N#CC(=Cc1ccc(O)c(O)c1)c1c(C#N)c(N)nn1-c1ccccc1 [Compound C10] |  |  |  | 25 | 25 | PDGF-R phosphorylation (PDGFR [2]): effects EGF-4, PDGF-R, and HER2 phosphorylation; EGF receptor phosphorylation (EGFR): effects EGF-4, PDGF-R, and HER2 phosphorylation; HER2 phosphorylation (HER2): effects EGF-4, PDGF-R, and HER2 phosphorylation
Cc1cc2ncc(-c3ccc([N+](=O)[O-])cc3)nc2cc1C [Compound G27, 2-(4-nitrophenyl) 6.7 dimethylquinoxaline] | > 100 | > 50 | > 50 |  |  | IC50 (PDGFR [1]): 48 µM
COc1cc2cc(-c3ccccc3)c(Cl)nc2cc1OC [Compound G12] |  |  | > 50 | 10 | 10 | PDGF-R phosphorylation (PDGFR [2]): inhibit PDGF-R phosphorylation; EGF receptor phosphorylation (EGFR): do not effect EGF or HER2 phosphorylation; HER2 phosphorylation (HER2): do not effect EGF or HER2 phosphorylation
Cc1cc2ncc(Nc3cccc(Br)c3)nc2cc1C [Compound G28] |  |  |  |  |  | IC50 (C6 cells): 4.5 µM; IC50 (PDGF-R (U1242); scndry, read-out: U1242 KINASE IC50 (scndry)): 16.4 µM
c1ccc(-c2cnc3ccccc3n2)cc1 [Compound G10] |  |  | > 50 | 10 | 10 | 
Cc1cc2ccccc2c[n+]1[O-] [Compound P13] |  |  |  |  |  | IC50 (C6 cells): > 100 µM; IC50 (PDGF-R (U1242); read-out: U1242 KINASE IC50): 1.2 µM
N#CC(=Cc1c[nH]c2ccccc12)C(N)=O [Compound D13] |  |  | > 50 | 30 | 30 | 

More lines, main results first:

IC50 (EGFR) [µM] | IC50 (HER2) [µM] | IC50 (FLK-1) [µM] | IC50 (PDGFR [2]; [4]) [µM] | IC50 (PDGFR [3]) [µM] | Compound | further results
> 50 | 10 | > 200 |  |  | COc1cc2ncnc(Nc3ccccc3)c2cc1OC [Compound P14] | IC50 (PDGFR [1]): 26 µM
> 100 | > 50 | > 50 |  |  | COCCCN1C(=O)SC(=Cc2ccccc2Cl)C1=O [Compound P15] | IC50 (PDGFR [1]): 46 µM
31 | > 100 | > 25 | 3 |  | N#CC(=Cc1cc(O)c(O)c(Br)c1)C(=O)NCCCNC(=O)C(C#N)=Cc1cc(O)c(O)c(Br)c1 [Compound P10] | IC50 (C6 cells): 12 µM; IC50 (PDGF-R (U1242); [5]): 3 µM
 |  |  | 25 | 30 | CC1c2nc3ccccc3c(=O)n2C(c2cccc(O)c2)N1Cc1ccccc1 (stereo not drawn) [Compound H12] | IC50 (C6 cells): 19 µM; IC50 (PDGF-R (U1242); [5]): > 250 µM and 25 µM
 | > 50 | > 50 | 25 |  | O=C(Nc1cc(C(F)(F)F)cc(C(F)(F)F)c1)c1cccs1 [Compound P12] | 
> 100 | > 100 | > 500 | 30 |  | N#CC(=Cc1ccc(O)c(O)c1)C(=O)NCc1ccc(F)cc1 [Compound P25] | 
